Test results published in patent US12678386B2, “Organic compounds as TRPM8 activators” (Givaudan SA, priority 2021, dated 2026).

Biological target: T1, hTRPM8 (Homo sapiens, UniProt Q7Z2W7)
T1 construct: expressed in transfected cells
Experiment: Assay on TRPM8 modulators: calcium imaging (Fluo-4, Flexstation) in HEK293 cell line stably expressing hTRPM8
Format: cell-based
Settings: HEK293 cells stably expressing hTRPM8; calcium influx, sigmoidal dose-response fit
Description: A HEK293 cell line stably expressing hTRPM8 was generated according to Klein et al., (Chem. Senses 36: 649-658, 2011) and receptor activation was monitored by calcium imaging in a Flexstation. For Ca-imaging assays of TRPM8 channel activation, cells were seeded on day 0 at a density of 12000 cells per well in Dulbecco's modified Eagle medium (DMEM) containing 9% foetal bovine serum in black, clear bottom 96-well plates that had been coated with 0.001% polyethyleneimine (molecular weight=60 000, Acros Organics). On day 2, agonists were evaluated via calcium imaging using Fluo-4. Briefly, growth medium was discarded, and the cells were incubated in the dark for 1 h at 37° C. in 50 μL loading buffer consisting of 2.7 μM Fluo-4 AM (Invitrogen) and […] probenecid (Sigma-Aldrich) in DMEM (without serum). After incubation, the plates were washed five times with 100 μL of assay buffer (in mM: 130 NaCl, 5 KCl, 10 HEPES, 2 CaCl2, and 10 glucose, pH7.4.) and further incubated in the dark at room temperature for 30 min. The cells were then washed five times with 100 μL assay buffer and then calcium influx to serial dilutions of inventive compounds were measured in a Flexstation 3 (Molecular Devices). Receptor activation was initiated following addition of 20 μl of a 10-fold concentrated ligand stock solution, which is also prepared in assay buffer. Fluorescence was continuously monitored for 15 seconds prior to ligand addition and for 105 seconds after ligand addition, for a total of 120 seconds. Maximal receptor activation in relation to solvent control and relative to 31.6 μM menthol is determined. Data from serial dilutions were processed with a KNIME workflow to fit a sigmoidal dose-response curve and to extrapolate EC50 values.

T1 sequence (Q7Z2W7 whole entry): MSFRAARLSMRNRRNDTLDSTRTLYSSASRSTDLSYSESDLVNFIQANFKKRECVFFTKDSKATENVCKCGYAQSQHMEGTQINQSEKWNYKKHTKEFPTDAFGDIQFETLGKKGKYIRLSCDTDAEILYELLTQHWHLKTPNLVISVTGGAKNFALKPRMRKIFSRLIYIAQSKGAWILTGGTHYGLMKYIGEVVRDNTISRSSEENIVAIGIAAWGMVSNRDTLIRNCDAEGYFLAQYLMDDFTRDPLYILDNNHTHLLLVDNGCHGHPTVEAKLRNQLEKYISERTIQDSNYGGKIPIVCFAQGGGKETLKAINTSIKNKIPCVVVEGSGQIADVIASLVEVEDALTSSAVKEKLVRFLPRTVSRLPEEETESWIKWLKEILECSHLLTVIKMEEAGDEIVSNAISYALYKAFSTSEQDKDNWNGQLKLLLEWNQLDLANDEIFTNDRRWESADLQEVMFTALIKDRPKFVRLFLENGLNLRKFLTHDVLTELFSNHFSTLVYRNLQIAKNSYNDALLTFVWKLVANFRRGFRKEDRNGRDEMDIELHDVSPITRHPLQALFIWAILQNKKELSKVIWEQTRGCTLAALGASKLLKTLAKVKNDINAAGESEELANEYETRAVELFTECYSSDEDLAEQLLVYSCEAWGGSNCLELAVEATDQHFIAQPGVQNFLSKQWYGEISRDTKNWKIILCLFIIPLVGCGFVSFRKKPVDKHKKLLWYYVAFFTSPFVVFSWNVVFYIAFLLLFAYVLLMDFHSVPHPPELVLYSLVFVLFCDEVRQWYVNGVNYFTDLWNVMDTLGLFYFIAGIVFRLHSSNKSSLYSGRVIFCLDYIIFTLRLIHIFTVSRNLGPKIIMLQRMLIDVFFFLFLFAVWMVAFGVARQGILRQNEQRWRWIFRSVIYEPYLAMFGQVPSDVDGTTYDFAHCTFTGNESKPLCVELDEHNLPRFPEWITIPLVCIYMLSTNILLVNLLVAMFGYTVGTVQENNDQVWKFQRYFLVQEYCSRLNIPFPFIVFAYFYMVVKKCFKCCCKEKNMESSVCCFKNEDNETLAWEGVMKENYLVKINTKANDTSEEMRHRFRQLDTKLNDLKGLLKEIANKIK

Row | Compound | EC50 [nM]
1 | CC(=O)n1ccc(N(Cc2cccs2)C(=O)COc2ccc(C)cc2)n1 [N-(1-acetyl-1H-pyrazol-3-yl)-N-(thiophen-2-ylmethyl)-2-(p-tolyloxy)acetamide] | < 50
2 | Cc1ccc(-c2cn(C(=O)C(C)C)c(C3CCCCN3C(=O)C(C)C)n2)cc1 (stereo not shown) [1-(2-(1-isobutyryl-4-(p-tolyl)-1H-imidazol-2-yl)piperidin-1-yl)-2-methylpropan-1-one] | 50 to 300
3 | CCC(C)C(=O)N1CCCCC1c1nc(-c2ccc(C)cc2)cn1C(=O)COCc1ccccc1 (stereo not shown) [1-(2-(1-(2-(benzyloxy)acetyl)-4-(p-tolyl)-1H-imidazol-2-yl)piperidin-1-yl)-2-methylbutan-1-one] | < 50
4 | CSC(C)C(=O)N1CCCCC1c1nc(-c2ccc(C)cc2)cn1C(=O)c1ccccc1 (stereo not shown) [1-(2-(1-benzoyl-4-(p-tolyl)-1 H-imidazol-2-yl)piperidin-1-yl)-2-(methylthio)propan-1-one] | < 50
5 | CSC(C)C(=O)N1CCCCC1c1nc(-c2ccc(C)cc2)cn1C(=O)[C@@H]1C[C@H](C)CC[C@H]1C(C)C (stereo partly drawn) [1-(2-(1-((1R,2S,5R)-2-isopropyl-5-methylcyclohexane-1-carbonyl)-4-(p-tolyl)-1H-imidazol-2-yl)piperidin-1-yl)-2-(methylthio)propan-1-one] | 300 to 1000
6 | CCC(=O)N1CCCCC1c1nc(-c2ccc(C)cc2)cn1C(=O)CC (stereo not shown) [1-(2-(1-propionyl-4-(p-tolyl)-1 H-imidazol-2-yl)piperidin-1-yl)propan-1-one] | 1000 to 35000
7 | CCCCCC(=O)n1cc(-c2ccc(C)cc2)nc1C1CCCCN1C(=O)C(C)SC (stereo not shown) [1-(2-(1-(2-(methylthio)propanoyl)piperidin-2-yl)-4-(p-tolyl)-1H-imidazol-1-yl)hexan-1-one] | 50 to 300
8 | CCCCCC(=O)n1cc(-c2ccc(C)cc2)nc1C1CCCCN1C(=O)C(C)CC (stereo not shown) [1-(2-(1-(2-methylbutanoyl)piperidin-2-yl)-4-(p-tolyl)-1H-imidazol-1-yl)hexan-1-one] | < 50
9 | CCCCCCCCCCCC(=O)n1cc(-c2ccc(C)cc2)nc1C1CCCCN1C(=O)C(C)SC (stereo not shown) [1-(2-(1-(2-(methylthio)propanoyl)piperidin-2-yl)-4-(p-tolyl)-1H-imidazol-1-yl)dodecan-1-one] | 50 to 300
10 | CCC(C)C(=O)N1CCCCC1c1nc(-c2ccc(C)cc2)cn1C(C)=O (stereo not shown) [1-(2-(1-acetyl-4-(p-tolyl)-1H-imidazol-2-yl)piperidin-1-yl)-2-methylbutan-1-one] | < 50
11 | CSC(C)C(=O)N1CCCCC1c1nc(-c2ccc(C)cc2)cn1C(=O)C(C)SC (stereo not shown) [2-(methylthio)-1-(2-(1-(2-(methylthio)propanoyl)-4-(p-tolyl)-1H-imidazol-2-yl)piperidin-1-yl)propan-1-one] | < 50
12 | CCC(C)C(=O)N1CCCCC1c1nc(-c2ccc(C)cc2)cn1C(=O)COC (stereo not shown) [1-(2-(1-(2-methoxyacetyl)-4-(p-tolyl)-1H-imidazol-2-yl)piperidin-1-yl)-2-methylbutan-1-one] | < 50
13 | CCCCCCCCCCCC(=O)n1cc(-c2ccc(C)cc2)nc1C1CCCCN1C(=O)C(C)CC (stereo not shown) [1-(2-(1-(2-methylbutanoyl)piperidin-2-yl)-4-(p-tolyl)-1H-imidazol-1-yl)dodecan-1-one] | 300 to 1000
14 | CSC(C)C(=O)N1CCCCC1c1nc(-c2ccc(C)cc2)cn1C(=O)C(C)C (stereo not shown) [1-(2-(1-isobutyryl-4-(p-tolyl)-1H-imidazol-2-yl)piperidin-1-yl)-2-(methylthio)propan-1-one] | < 50
15 | Cc1ccc(OCC(=O)N(Cc2cccs2)c2ccn(C(=O)c3ccccc3)n2)cc1 [N-(1-benzoyl-1H-pyrazol-3-yl)-N-(thiophen-2-ylmethyl)-2-(p-tolyloxy)acetamide] | < 50
16 | Cc1ccc(OCC(=O)N(Cc2cccs2)c2ccn(C(=O)C(C)C)n2)cc1 [N-(1-isobutyryl-1H-pyrazol-3-yl)-N-(thiophen-2-ylmethyl)-2-(p-tolyloxy)acetamide] | < 50
17 | CSC(C)C(=O)N1CCCCC1c1nc(-c2ccc(C)cc2)cn1C(C)=O (stereo not shown) [1-(2-(1-acetyl-4-(p-tolyl)-1 H-imidazol-2-yl)piperidin-1-yl)-2-(methylthio)propan-1-one] | 50 to 300
18 | CCC(C)C(=O)N1CCCCC1c1nc(-c2ccc(C)cc2)cn1C(=O)[C@@H]1C[C@H](C)CC[C@H]1C(C)C (stereo partly drawn) [1-(2-(1-((1R,2S,5R)-2-isopropyl-5-methylcyclohexane-1-carbonyl)-4-(p-tolyl)-1H-imidazol-2-yl)piperidin-1-yl)-2-methylbutan-1-one] | 1000 to 35000
19 | CCC(C)C(=O)N1CCCCC1c1nc(-c2ccc(C)cc2)cn1C(=O)C(C)C (stereo not shown) [1-(2-(1-isobutyryl-4-(p-tolyl)-1 H-imidazol-2-yl)piperidin-1-yl)-2-methylbutan-1-one] | 50 to 300
